The supplement of paper PMC10307832

Columns and labels:
Assay in all cases: relative viability (nuclei count vs DMSO), 5 days (fraction); higher = more cells survive
Ispinesib + Decitabine = compound: Cc1ccc(C(=O)N(CCCN)[C@@H](c2nc3cc(Cl)ccc3c(=O)n2Cc2ccccc2)C(C)C)cc1 [Ispinesib] + Nc1ncn([C@H]2C[C@H](O)[C@@H](CO)O2)c(=O)n1 [Decitabine] (partner 2 µM)
Procedure, shortened: (§1)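 Lung cancer cell lines in 1536-well plates got either a single drug or a fixed anchor-drug dose together with five library-drug doses (not always all listed) in √10 steps, by pin tool, on the day after seeding. Nuclei were counted after 5 days, and relative viability is the treated-to-vehicle ratio of nuclei counts. Values are medians of duplicate plates.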

Ispinesib + Pictilisib = compound: Cc1ccc(C(=O)N(CCCN)[C@@H](c2nc3cc(Cl)ccc3c(=O)n2Cc2ccccc2)C(C)C)cc1 [Ispinesib] + CS(=O)(=O)N1CCN(Cc2cc3nc(-c4cccc5[nH]ncc45)nc(N4CCOCC4)c3s2)CC1 [Pictilisib] (partner 1 µM)
Procedure, shortened: as §1

Linsitinib + Pictilisib = compound: C[C@]1(O)C[C@@H](c2nc(-c3ccc4ccc(-c5ccccc5)nc4c3)c3c(N)nccn32)C1 [Linsitinib] + CS(=O)(=O)N1CCN(Cc2cc3nc(-c4cccc5[nH]ncc45)nc(N4CCOCC4)c3s2)CC1 [Pictilisib] (partner 1 µM)
Procedure, shortened: as §1

Linsitinib + OSI-027 = compound: C[C@]1(O)C[C@@H](c2nc(-c3ccc4ccc(-c5ccccc5)nc4c3)c3c(N)nccn32)C1 [Linsitinib] + COc1cccc2cc(-c3nc([C@H]4CC[C@H](C(=O)O)CC4)n4ncnc(N)c34)[nH]c12 [OSI-027] (partner 0.5 µM)
Procedure, shortened: as §1

Cell Line	relative viability (Ispinesib + Decitabine; first compound 0.001 µM)	relative viability (Ispinesib + Decitabine; first compound 0.003162 µM)	relative viability (Ispinesib + Decitabine; first compound 0.01 µM)	relative viability (Ispinesib + Decitabine; first compound 0.03162 µM)	relative viability (Ispinesib + Decitabine; first compound 0.1 µM)	relative viability (Ispinesib + Pictilisib; first compound 0.001 µM)	relative viability (Ispinesib + Pictilisib; first compound 0.003162 µM)	relative viability (Ispinesib + Pictilisib; first compound 0.01 µM)	relative viability (Ispinesib + Pictilisib; first compound 0.03162 µM)	relative viability (Ispinesib + Pictilisib; first compound 0.1 µM)	relative viability (Linsitinib + Pictilisib; first compound 0.01 µM)	relative viability (Linsitinib + Pictilisib; first compound 0.03162 µM)	relative viability (Linsitinib + Pictilisib; first compound 0.1 µM)	relative viability (Linsitinib + Pictilisib; first compound 0.3162 µM)	relative viability (Linsitinib + Pictilisib; first compound 1 µM)	relative viability (Linsitinib + OSI-027; first compound 0.01 µM)	relative viability (Linsitinib + OSI-027; first compound 0.03162 µM)	relative viability (Linsitinib + OSI-027; first compound 0.1 µM)	relative viability (Linsitinib + OSI-027; first compound 0.3162 µM)	relative viability (Linsitinib + OSI-027; first compound 1 µM)
NCI-H1793	0.411	0.473	0.624	0.524	0.229	0.331	0.404	0.39	0.217	0.124	0.309	0.311	0.238	0.235	0.29	0.25	0.314	0.246	0.205	0.175
LCLC-97TM1	0.248	0.24	0.303	0.235	0.19	0.251	0.187	0.192	0.111	0.126	0.283	0.254	0.208	0.117	0.154	0.52	0.515	0.335	0.248	0.234
NCI-H1915	0.233	0.281	0.268	0.291	0.229	0.969	1.07	0.977	0.532	0.232	0.996	0.943	0.97	0.726	0.522	0.646	0.678	0.623	0.515	0.392
NCI-H661	0.614	0.567	0.511	0.264	0.231	0.387	0.471	0.41	0.31	0.332		0.375	0.329	0.464	0.332	0.732	0.651	0.652	0.6	0.516
NCI-H2405	0.754	0.741	0.845	0.831	0.695	0.543	0.455	0.395	0.317	0.201	0.428	0.329	0.43	0.69	0.332	0.624	0.638	0.637	0.53	0.347
NCI-H2347	0.625	0.618	0.597	0.578	0.589	0.798	0.92	0.592	0.523	0.419	0.802	0.609	0.597	0.695	0.717	0.36	0.517	0.261		0.356
NCI-H1651	0.582	0.688	0.67	0.559	0.508	0.623	0.66	0.8	0.491	0.18	0.505	0.569	0.475	0.377	0.508	0.646	0.654	0.646	0.581	0.543
H3255	0.573	0.629	0.622	0.495	0.41	0.456	0.431	0.471	0.335	0.345	0.571	0.52	0.566	0.468	0.45	0.654	0.682	0.725	0.467	0.576
NCI-H650	0.289	0.325	0.328	0.33	0.306	0.861	0.99	0.868	0.827	0.402	0.875	0.876	0.953		0.814	0.524	0.527	0.541	0.256	0.27
NCI-H460	0.533	0.516	0.699	0.146	0.0478	0.415	0.425	0.449	0.229	0.0764	0.308	0.36	0.278	0.494	0.225	0.736	0.646	0.701	0.507	0.304
NCI-H2085	0.487	0.524	0.581	0.577	0.556	0.485	0.406	0.504	0.43	0.307	0.431	0.462	0.426	0.466	0.471	0.681	0.657	0.814	0.712	0.431
HCC-366	0.377	0.426	0.396	0.399	0.0716	0.082	0.161	0.143	0.0978	0.0851	0.127	0.0857	0.0909		0.108	1.03	0.999	0.888	0.821	0.235
EPLC-272H	0.395	0.355	0.377	0.322	0.25	0.295	0.337	0.338	0.258	0.142	0.339	0.306	0.286		0.23	0.262	0.296			0.257
201T	0.849	0.859	0.897	0.889	0.839	0.724	0.733	0.677	0.643	0.652	0.706	0.703	0.688	0.616	0.534	0.808	0.799	1.01	0.829	0.342
NCI-H3122	0.498	0.443	0.426	0.483	0.292	0.601	0.838	0.635	0.569	0.162	0.601	0.58	0.572	0.499	0.399	0.994	0.868	1.03		0.487
NCI-H838	0.457	0.45	0.46	0.236	0.181	0.451	0.494	0.544	0.392	0.257	0.42	0.446	0.374	0.217	0.306	0.323	0.42	0.312		0.189
NCI-H1755	0.704	0.771	0.758	0.75	0.72	0.403	0.464	0.534	0.22	0.194	0.422	0.409	0.442	0.237	0.372	0.681	0.77	0.737	0.356	0.487
HCC-15	0.706	0.768	0.752	0.418	0.225	0.878	0.864	0.812	0.459	0.139	0.743	0.703	0.824	0.234	0.583	0.677	0.677	0.616		0.246
NCI-H2087	0.346	0.297	0.241	0.194	0.122	0.94	0.881	1.13	0.313	0.187	0.92	0.906	0.723	0.294	0.775	0.691	0.582	0.463	0.362	0.182
LCLC-103H	0.757	0.741	0.739	0.68	0.6	0.6	0.624	0.682	0.495	0.572	0.686	0.566	0.596	0.718	0.535	0.44	0.475	0.42	0.356	0.367
NCI-H1650	0.527	0.448	0.45	0.331	0.185	0.586	0.576	0.338	0.164	0.266	0.529	0.485	0.556	0.138	0.356	0.576	0.598	0.527	0.242	0.222
LK-2	0.253	0.419	0.36	0.216	0.153	0.645	0.632	0.744	0.438	0.443	0.698	0.529	0.553	0.494	0.851	0.243	0.242	0.154	0.167	0.168
ChaGo-K-1	0.463	0.56	0.494	0.574	0.521	0.895	1.3	0.659	0.397	0.312	0.809	0.665	0.576	0.317	0.666	0.613	0.627	0.573	0.319	0.522
HCC-78	0.68	0.732	0.825	0.577	0.578	0.223	0.198	0.235		0.247	0.205	0.225	0.162	0.203	0.204	0.377	0.379	0.31	0.377	0.347
NCI-H1666	0.638	0.795	0.779	0.656	0.625	0.42	0.404	0.42	0.302	0.312	0.376	0.286	0.296	0.162	0.307	0.772	0.957	0.759	0.476	0.434
EKVX	0.366		0.337	0.284	0.218	0.442	0.423	0.508	0.543	0.438	0.464	0.39	0.43	0.502	0.375	0.706	0.723	0.687	0.467	0.607
COR-L 105	0.595	0.662	0.67	0.43	0.337	0.448	0.393	0.257	0.243	0.258	0.454	0.434	0.387	0.301	0.25	0.64	0.578	0.603	0.596	0.381
